In brackets after ≈: the same amount, converted by molar mass.

Experiment [1] deals with Pseudomonas aeruginosa. The experiment can be described thus: Antibacterial activity against Pseudomonas aeruginosa NCDC 105 assessed as zone of inhibition at 10 ug/ml by agar well diffusion method. It counts as functional. The following applies: read-out: DIZ.
In experiment [2] the test system is Pseudomonas aeruginosa. The experiment can be described thus: Antibacterial activity against Pseudomonas aeruginosa NCDC 105 assessed as zone of inhibition at 50 ug/ml by agar well diffusion method. It counts as functional. As to conditions: read-out: DIZ.
Experiment [3] deals with Pseudomonas aeruginosa. The experiment in a line: Antibacterial activity against Pseudomonas aeruginosa NCDC 105 assessed as zone of inhibition at 100 ug/ml by agar well diffusion method. It counts as functional. As to conditions: read-out: DIZ. (In agar diffusion tests the substance spreads into inoculated agar from a disc or well.)
For a further experiment, the system named is Clostridium perfringens. The experiment in a line: Antibacterial activity against Clostridium perfringens 22 incubated for 18 hrs by microbroth dilution method. It counts as functional. On the technique in general: Broth dilution looks for growth in wells or tubes with falling amounts of substance.
The subject of a further experiment is Bacteroides fragilis. The experiment in a line: Antibacterial activity against Bacteroides fragilis PA-2-II incubated for 18 hrs by microbroth dilution method. It counts as functional.
In experiment [4] the test system is Bacillus subtilis. The experiment in a line: Antibacterial activity against Bacillus subtilis PTCC 1207 assessed as zone of inhibition incubated for 24 hrs by cup-plate agar diffusion method. The format is functional.
The test system of experiment [5] is Escherichia coli. The experiment can be described thus: Antibacterial activity against Escherichia coli PTCC 1047 assessed as zone of inhibition incubated for 24 hrs by cup-plate agar diffusion method. The format is functional.
Another experiment concerns A549. The experiment can be described thus: Antiproliferative activity against human A549 cells assessed as cell growth inhibition measured after 72 hrs by MTT assay. It counts as functional, cell-based. As to conditions: A549, 72 h. For orientation: Tetrazolium assays rely on reduction of a dye to a coloured formazan, in cell work by metabolically active cells.
The subject of experiment [6] is Plasmodium falciparum. The experiment in a line: Antiplasmodial activity against Plasmodium falciparum FCR-3 assessed as cell growth inhibition. It counts as functional, organism-based.
Experiment [7] deals with Mycobacterium tuberculosis. The experiment can be described thus: Antimycobacterial activity against Mycobacterium tuberculosis H37Rv assessed as inhibition of bacterial growth measured after 24 hrs by turbidity based analysis. The format is functional.
Experiment [8] has as its system Mycobacterium tuberculosis. The experiment can be described thus: Antimycobacterial activity against Mycobacterium tuberculosis H37Rv assessed as inhibition of bacterial growth measured after 7 days by alamar blue dye based microplate analysis. The format is functional. The following applies: 168 h, time 7 day.
Experiment [9] relates to Plasmodium falciparum. The experiment can be described thus: Antiplasmodial activity against Plasmodium falciparum 3D7 assessed as cell growth inhibition. It counts as functional, organism-based.
Experiment [10] relates to Human immunodeficiency virus 1. The experiment can be described thus: Antiviral activity against wild type HIV1 infected in human C8166 cells. The format is functional, organism-based. The following applies: Human immunodeficiency virus 1, C8166.
The subject of experiment [11] is Human immunodeficiency virus 1. The experiment can be described thus: Antiviral activity against HIV1 A17 mutant infected in human C8166 cells. The format is functional, organism-based. The following applies: Human immunodeficiency virus 1, A17, C8166.
Experiment [12] concerns Escherichia coli. The experiment in a line: Antibacterial activity against Escherichia coli ATCC 35218 incubated for 24 hrs by serial dilution method. The format is functional.
A further experiment has as its system Klebsiella pneumoniae. The experiment in a line: Antibacterial activity against Klebsiella pneumoniae ATCC 35657 incubated for 24 hrs by serial dilution method. The format is functional.
The test system of experiment [13] is Plasmodium falciparum. The experiment can be described thus: Antiplasmodial activity against chloroquine sensitive Plasmodium falciparum NF54 infected in human red blood cells assessed as reduction in [3H]-hypoxanthine incorporation pretreated for 48 hrs followed by [3H]-hypoxanthine addition measured after 24 hrs by scintillation counting method. It counts as functional, organism-based.

The test system of experiment [14] is Escherichia coli. The experiment in a line: Antibacterial activity against Escherichia coli ATCC 8739 assessed as zone of inhibition by agar dilution method. The format is functional.
For experiment [15], the system named is Staphylococcus aureus. The experiment can be described thus: Antibacterial activity against Staphylococcus aureus ATCC 6538 assessed as zone of inhibition by agar dilution method. The format is functional.
The test system of experiment [16] is Staphylococcus aureus. The experiment in a line: Antibacterial activity against Staphylococcus aureus ATCC 6538p incubated for 18 hrs by agar dilution method. It counts as functional.
In experiment [17] the test system is Staphylococcus epidermidis. The experiment can be described thus: Antibacterial activity against Staphylococcus epidermidis ATCC 12228 incubated for 18 hrs by agar dilution method. The format is functional.
Experiment [18] has as its system Bacillus subtilis. The experiment in a line: Antibacterial activity against Bacillus subtilis ATCC 6633 incubated for 18 hrs by agar dilution method. The format is functional.
In experiment [19] the test system is Human immunodeficiency virus 1. The experiment can be described thus: Antiviral activity against HIV1 infected in human MT4 cells by MTT assay. The format is functional, organism-based. The following applies: Human immunodeficiency virus 1, MT4.
The subject of experiment [20] is Human immunodeficiency virus 2. The experiment can be described thus: Antiviral activity against HIV2 infected in human MT4 cells by MTT assay. It counts as functional, organism-based. As to conditions: Human immunodeficiency virus 2, MT4.
The next experiment has as its target Cytochrome P450 3A4 (Homo sapiens, UniProt P08684). The experiment can be described thus: Inhibition of CYP3A4 in human liver microsomes using midazolam as substrate. The format is ADME, Microsome.

Chain of Cytochrome P450 3A4 (P08684 whole entry): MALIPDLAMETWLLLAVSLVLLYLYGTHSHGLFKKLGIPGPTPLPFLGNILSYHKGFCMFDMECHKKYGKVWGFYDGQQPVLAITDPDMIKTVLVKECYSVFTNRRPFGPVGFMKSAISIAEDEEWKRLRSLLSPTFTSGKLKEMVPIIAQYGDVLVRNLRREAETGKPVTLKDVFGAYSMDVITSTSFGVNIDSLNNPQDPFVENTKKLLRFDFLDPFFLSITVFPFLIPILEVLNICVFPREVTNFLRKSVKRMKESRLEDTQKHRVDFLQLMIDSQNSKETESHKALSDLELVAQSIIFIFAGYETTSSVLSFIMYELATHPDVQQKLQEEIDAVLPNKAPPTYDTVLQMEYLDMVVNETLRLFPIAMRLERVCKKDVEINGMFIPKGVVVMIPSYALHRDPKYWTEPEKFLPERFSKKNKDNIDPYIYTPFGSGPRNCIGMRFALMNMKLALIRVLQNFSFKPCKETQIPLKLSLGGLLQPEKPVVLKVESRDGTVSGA

As for `CCn1cc(C(=O)O)c(=O)c2cc(F)c(N3CCN(CNc4nc5ccc(F)cc5s4)CC3)cc21`, in the experiment with Pseudomonas aeruginosa [1], the zone of inhibition at 10 µg/mL is 3.3 mm. Besides, the zone of inhibition at 50 µg/mL in the experiment on Pseudomonas aeruginosa [2] turned out to be 3.8 mm. The zone of inhibition at 100 µg/mL in the experiment on Pseudomonas aeruginosa [3] came to 4.8 mm. In the case of `Cc1c(N2C[C@]3(N)CCC[C@]3(F)C2)c(F)cc2c(=O)c(C(=O)O)cn([C@@H]3C[C@@H]3F)c12.Cl.O.O`, the MIC in the experiment on Clostridium perfringens and against Bacteroides fragilis was ≤ 0.05 µg/mL each time.

On to `CCn1cc(C(=O)O)c(=O)c2cc(F)c(N3CCN(C/C(=N\OC)c4cc5cccc(OC)c5oc4=O)CC3)cc21`, for which the “diameter of the inhibition zone (DIZ)” value in the experiment on Bacillus subtilis [4] came out at 36 mm; in the experiment on Escherichia coli [5] it was 32 mm. Consider `N=C(NS(=O)(=O)c1ccccc1C(F)(F)F)N1CCN(c2cc3c(cc2F)c(=O)c(C(=O)O)cn3-c2ccc(F)cc2F)CC1`, for which, in the experiment with A549, the IC50 was found to be 9 nM. For `Cn1cc(C(=O)N/N=C\c2ccccn2)c(=O)c2cc(F)ccc21`, in the experiment with Plasmodium falciparum [6], the IC50 is 3300 nM. For the compound `CCn1cc(C(=O)O)c(=O)c2cc(F)c(N3CCN(CC(=O)Nc4nnc(-c5ccc(Cl)cc5Cl)s4)CC3)cc21`, in [7], the MIC was 8 µg/mL (≈ 13.2 µM). Regarding `COc1ccc(C(=O)N/N=C(/C)CCN2CCN(c3c(F)cc4c(=O)c(C(=O)O)cn(C5CC5)c4c3OC)CC2)cc1`, in [8], the MIC came out at 0.5 µM (≈ 0.29 µg/mL). Take `C[C@H]1[C@@H](OC(=O)c2cn(C3CC3)c3cc(N4CCNCC4)c(F)cc3c2=O)O[C@@H]2O[C@@]3(C)CC[C@H]4[C@H](C)CC[C@@H]1[C@@]24OO3`: in the experiment on Plasmodium falciparum [9], the IC50 stood at 9.97 nM. On to `CC(C)[C@@H](CO)n1cc(C(=O)O)c(=O)c2c(F)c(Cc3cccc(Cl)c3F)ccc21`, for which the EC50 turned out to be 32 nM in experiment [10] and 82 nM in [11]. Take `O=C(NO)c1cn(C2CC2)c2cc(-n3cc(CN4CCOCC4)nn3)c(F)cc2c1=O`: the MIC in the experiment on Escherichia coli [12] and in the experiment with Klebsiella pneumoniae was 4 µg/mL (≈ 9.34 µM) in each case.

In the case of `Cn1c(-c2ccc(CCCCCCBr)cc2)cc(=O)c2ccccc21`, the IC50 in the experiment with Plasmodium falciparum [13] was found to be 90 nM.

Turning to `O=C([O-])c1cn(CCn2cc(C(=O)[O-])c(=O)c3cc(F)c(N4CC5CCCNC5C4)c(F)c32)c2c(F)c(N3CC4CCCNC4C3)c(F)cc2c1=O.[Na+].[Na+]` (stereo unspecified), the “diameter of the inhibition zone (DIZ)” value with Escherichia coli [14] is 22 mm; in the experiment on Staphylococcus aureus [15] it was 15 mm.

As for `O=C(O)c1cn(-c2ccc(F)cc2)c2cc(N3CCN(C/C(=N\O)c4ccccc4)CC3)c(F)cc2c1=O`, the MIC (with Staphylococcus aureus [16]; in experiment [17]; with Bacillus subtilis [18]) was < 0.125 µg/mL in each case. `Cn1c(-c2ccc(CCCCCCCCCCN3CCCCC3)cc2)cc(=O)c2ccccc21`: the concentration for half-maximal inhibition (IC50) in the experiment on Plasmodium falciparum [13] stood at 820 nM. Take `Cn1cc(C(=O)O)c(=O)c2ccc(N3CCN(c4nc5ccccc5s4)CC3)nc21`: the EC50 in experiment [19] amounted to 60 nM; in [20], 40 nM. Take `COc1c(N2CC[C@@H](C3(N)CC3)C2)ccc2c(=O)c(C(=O)O)cn([C@@H]3C[C@@H]3F)c12`: on Cytochrome P450 3A4, the affinity, expressed as Ki, was 67900 nM. This counts as double-digit micromolar. For `O=C(O)c1cn(C2CC2)c2cc(N3CCN(CNc4nc5ccc([N+](=O)[O-])cc5s4)CC3)c(F)cc2c1=O`, the zone of inhibition at 10 µg/mL with Pseudomonas aeruginosa [1] was found to be 3.5 mm. In addition, the zone of inhibition at 50 µg/mL with Pseudomonas aeruginosa [2] came out at 5.5 mm. Besides, in the experiment with Pseudomonas aeruginosa [3], the zone of inhibition at 100 µg/mL amounted to 6.3 mm.

`CCn1cc(C(=O)O)c(=O)c2cc(F)c(N3CCN(C/C(=N\OC)c4cc5cccc(OC)c5oc4=O)CC3)nc21`: the “diameter of the inhibition zone (DIZ)” value in the experiment on Bacillus subtilis [4] is 39 mm; in the experiment on Escherichia coli [5], 35 mm.

Broadly, the MIC is the lowest concentration found to suppress growth. The term IC50 denotes the point on the concentration scale where inhibition reaches its midpoint. For orientation: EC50 means the concentration at which the effect is half-maximal. Lower therefore signals greater potency. As usually defined, the Ki is a measure of affinity in units of concentration, obtained from inhibition or displacement. High values mean lower affinity, low ones higher affinity.

The record behind these values is ChEMBL document CHEMBL5120766, “Recent insight into the biological activities and SAR of quinolone derivatives as multifunctional scaffold” (Bioorg Med Chem, 2022).
